# Target: SIK2 (Homo sapiens (Human), UniProt Q9H0K1)
# Assay: SIK2 Enzymatic Assay Version 2 (High ATP)
# Type: biochemical
# Conditions: 3 mM ATP and 200 μM HDAC5tide final, ADP-Glo Max luminescence
# Summary of the method: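 Run at room temperature; SIK2 enzyme at 6 nM (2× final) preincubated with compound 30 min before reaction. ADP formation detected by ADP-Glo Max (2 h reagent, 1 h detection) with luminescence read-out.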
# Chain of SIK2 (Q9H0K1 whole entry, species assumed): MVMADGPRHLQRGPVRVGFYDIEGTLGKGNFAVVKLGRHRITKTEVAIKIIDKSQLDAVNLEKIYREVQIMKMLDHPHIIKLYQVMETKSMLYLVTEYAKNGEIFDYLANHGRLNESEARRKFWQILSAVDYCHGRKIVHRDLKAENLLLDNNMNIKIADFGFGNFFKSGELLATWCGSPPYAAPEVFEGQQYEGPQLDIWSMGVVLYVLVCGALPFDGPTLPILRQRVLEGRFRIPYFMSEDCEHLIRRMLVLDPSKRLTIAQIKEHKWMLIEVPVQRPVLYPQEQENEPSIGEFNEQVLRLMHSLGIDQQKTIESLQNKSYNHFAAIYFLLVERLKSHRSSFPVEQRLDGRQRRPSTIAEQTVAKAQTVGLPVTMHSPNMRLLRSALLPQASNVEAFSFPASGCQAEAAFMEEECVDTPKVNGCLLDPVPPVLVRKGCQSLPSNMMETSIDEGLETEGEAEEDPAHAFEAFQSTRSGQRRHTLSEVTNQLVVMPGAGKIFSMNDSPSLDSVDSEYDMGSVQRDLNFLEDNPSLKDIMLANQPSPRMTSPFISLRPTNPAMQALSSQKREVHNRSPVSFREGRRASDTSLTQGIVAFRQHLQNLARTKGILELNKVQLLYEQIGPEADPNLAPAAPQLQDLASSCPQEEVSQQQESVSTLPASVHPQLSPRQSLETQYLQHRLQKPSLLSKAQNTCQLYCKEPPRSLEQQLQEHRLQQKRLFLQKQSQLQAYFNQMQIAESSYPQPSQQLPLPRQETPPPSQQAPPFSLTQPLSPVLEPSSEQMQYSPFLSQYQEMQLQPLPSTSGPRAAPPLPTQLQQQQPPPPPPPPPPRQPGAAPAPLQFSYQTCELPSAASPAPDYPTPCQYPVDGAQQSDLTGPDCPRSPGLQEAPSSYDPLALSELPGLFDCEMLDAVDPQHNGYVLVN
row,SMILES,IC50 [nM]
1,"Cc1cc(Nc2cc3cc(-c4c(OC[C@H]5CCN5C)cnn4C)ccn3n2)nn(C)c1=O [Example 152, 2,4-dimethyl-6-[[5-[2-methyl-4-[[(2R)-1-methylazetidin-2-yl]methoxy]pyrazol-3-yl]pyrazolo[1,5-a]pyridin-2-yl]amino]pyridazin-3-one]",< 0.847
2,"CN1CC[C@@H]1COc1cnn(C)c1-c1ccn2nc(Nc3cn(C)nn3)cc2c1 [Example 124, 5-[2-methyl-4-[[(2R)-1-methylazetidin-2-yl]methoxy]pyrazol-3-yl]-N-(1-methyltriazol-4-yl)pyrazolo[1,5-a]pyridin-2-amine]",14.9
3,"Cc1cc(Nc2cc3cc(-c4c(O[C@@H]5CNC[C@@H]5F)cnn4C(F)F)ccn3n2)nc(C)n1 [Example 32, 5-[2-(difluoromethyl)-4-[(3R,4S)-4-fluoropyrrolidin-3-yl]oxy-pyrazol-3-yl]-N-(2,6-dimethylpyrimidin-4-yl)pyrazolo[1,5-a]pyridin-2-amine]",6.6
4,"CN1CC[C@@H]1COc1cnn(C)c1-c1ccn2nc(Nc3cc(C(F)(F)F)ncn3)cc2c1 [Example 123, 5-[2-methyl-4-[[(2R)-1-methylazetidin-2-yl]methoxy]pyrazol-3-yl]-N-[6-(trifluoromethyl)pyrimidin-4-yl]pyrazolo[1,5-a]pyridin-2-amine]",8.4
5,"Cc1cc(Nc2cc3cc(-c4c(O[C@@H]5CNC[C@@H]5F)noc4C)ccn3n2)nc(C)n1 [Example 92, N-(2,6-dimethylpyrimidin-4-yl)-5-[3-[(3R,4S)-4-fluoropyrrolidin-3-yl]oxy-5-methyl-isoxazol-4-yl]pyrazolo[1,5-a]pyridin-2-amine]",4.3
6,"Cc1cc(Nc2cc3cc(-c4c(OC[C@@H]5CCN(C)C5=O)cnn4C)ccn3n2)nc(C)n1 (single isomer, unassigned) [Example 34, (*S)-3-[[5-[2-[(2,6-dimethylpyrimidin-4-yl)amino]pyrazolo[1,5-a]pyridin-5-yl]-1-methyl-pyrazol-4-yl]oxymethyl]-1-methyl-pyrrolidin-2-one]",9.2
7,"CCn1ncc(OC[C@H]2CCN2C)c1-c1ccn2nc(Nc3cc(C)nc(C)n3)cc2c1 [Example 130, N-(2,6-dimethylpyrimidin-4-yl)-5-[2-ethyl-4-[[(2R)-1-methylazetidin-2-yl]methoxy]pyrazol-3-yl]pyrazolo[1,5-a]pyridin-2-amine]",< 0.847
8,"Cc1onc(O[C@@H]2CCNC[C@@H]2F)c1-c1ccn2nc(NC(=O)C3CC3)cc2c1 (single isomer, unassigned) [Example 215, N-(5-(3-(((3*S,4*R)-3-fluoropiperidin-4-yl)oxy)-5-methylisoxazol-4-yl)pyrazolo[1,5-a]pyridin-2-yl)cyclopropanecarboxamide]",27.5
9,"COc1nc(C)cc(Nc2cc3cc(-c4c(OC[C@H]5CCN5C)cnn4C)ccn3n2)n1 [Example 146, N-(2-methoxy-6-methyl-pyrimidin-4-yl)-5-[2-methyl-4-[[(2R)-1-methylazetidin-2-yl]methoxy]pyrazol-3-yl]pyrazolo[1,5-a]pyridin-2-amine]",< 0.847
10,"Cc1ncc(Nc2cc3cc(-c4c(OC[C@H]5CCN5C[C@H](C)O)cnn4C)ccn3n2)nc1C [Example 297, (2S)-1-[(2R)-2-[[5-[2-[(5,6-dimethylpyrazin-2-yl)amino]pyrazolo[1,5-a]pyridin-5-yl]-1-methyl-pyrazol-4-yl]oxymethyl]azetidin-1-yl]propan-2-ol]",< 0.847
11,"CN1CC[C@@H]1COc1cnn(C)c1-c1ccn2nc(Nc3cnc(OC(F)F)cn3)cc2c1 [Example 155, N-[5-(difluoromethoxy)pyrazin-2-yl]-5-[2-methyl-4-[[(2R)-1-methylazetidin-2-yl]methoxy]pyrazol-3-yl]pyrazolo[1,5-a]pyridin-2-amine]",6.6
12,"Cc1cc(Nc2cc3cc(-c4c(OC[C@@H](O)C5(C)CC5)cnn4C)ccn3n2)nc(C)n1 (single isomer, unassigned) [Example 357, *S-1-methylcyclopropyl-2-[5-[2-[(2,6-dimethylpyrimidin-4-yl)amino]pyrazolo[1,5-a]pyridin-5-yl]-1-methyl-pyrazol-4-yl]oxy-ethanol]",61.9
13,"Cc1cc(Nc2cc3cc(-c4c(OC[C@H]5CCN5C)cnn4C)ccn3n2)nc(C(C)(C)C)n1 [Example 151, N-(2-tert-butyl-6-methyl-pyrimidin-4-yl)-5-[2-methyl-4-[[(2R)-1-methylazetidin-2-yl]methoxy]pyrazol-3-yl]pyrazolo[1,5-a]pyridin-2-amine]",< 0.847
14,"Cc1nc(Nc2cc3cc(-c4c(OC[C@H]5CCN5C)cnn4C)ccn3n2)cc(C(F)(F)F)n1 [Example 122, 5-[2-methyl-4-[[(2R)-1-methylazetidin-2-yl]methoxy]pyrazol-3-yl]-N-[2-methyl-6-(trifluoromethyl)pyrimidin-4-yl]pyrazolo[1,5-a]pyridin-2-amine]",3.6
15,"CO[C@@H]1CN(C)C[C@@H]1Oc1noc(C)c1-c1ccn2nc(NC(=O)C3CC3)cc2c1 (relative stereo) [Example 317, *S, *R—N-[5-[3-(4-methoxy-1-methyl-pyrrolidin-3-yl)oxy-5-methyl-isoxazol-4-yl]pyrazolo[1,5-a]pyridin-2-yl]cyclopropanecarboxamide]",67.8
16,"Cc1cc(Nc2cc3cc(-c4c(OC[C@H]5CCN5C[C@H](C)O)cnn4C)ccn3n2)nc(C)n1 [Example 292, (2S)-1-[(2R)-2-[[5-[2-[(2,6-dimethylpyrimidin-4-yl)amino]pyrazolo[1,5-a]pyridin-5-yl]-1-methyl-pyrazol-4-yl]oxymethyl]azetidin-1-yl]propan-2-ol]",< 0.847
17,"Cc1onc(O[C@@H]2CCN(C)C3(CCC3)C2)c1-c1ccn2nc(NC(=O)C3CC3)cc2c1 (single isomer, unassigned) [Example 219, (*R)—N-[5-[5-methyl-3-[(9-methyl-9-azaspiro[3.5]nonan-6-yl)oxy]isoxazol-4-yl]pyrazolo[1,5-a]pyridin-2-yl]cyclopropanecarboxamide]",44.3
18,"Cc1cc(Nc2cc3cc(-c4c(OC[C@]5(F)CCNC5)cnn4C(F)F)ccn3n2)nc(C)n1 (single isomer, unassigned) [Example 263, (*S)-5-(1-(difluoromethyl)-4-((3-fluoropyrrolidin-3-yl)methoxy)-1H-pyrazol-5-yl)-N-(2,6-dimethylpyrimidin-4-yl)pyrazolo[1,5-a]pyridin-2-amine]",40.2

# Second part, the molecule after the results:
row,IC50 [nM],SMILES
1,230,"CN1CC(F)(F)C1COc1cnn(C)c1-c1ccn2nc(NC(=O)C3CC3)cc2c1 (racemic) [Example 60, rac-N-[5-[4-[(3,3-difluoro-1-methyl-azetidin-2-yl)methoxy]-2-methyl-pyrazol-3-yl]pyrazolo[1,5-a]pyridin-2-yl]cyclopropanecarboxamide]"
2,1.5,"CCN1CC[C@@H]1COc1cnn(C)c1-c1ccn2nc(Nc3cc(C(F)(F)F)ncn3)cc2c1 [Example 164, 5-[4-[[(2R)-1-ethylazetidin-2-yl]methoxy]-2-methyl-pyrazol-3-yl]-N-[6-(trifluoromethyl)pyrimidin-4-yl]pyrazolo[1,5-a]pyridin-2-amine]"
3,< 0.847,"Cc1cc(Nc2cc3cc(-c4c(OC[C@H]5CCN5C)cnn4C)ccn3n2)nc(C2CC2)n1 [Example 144, N-(2-cyclopropyl-6-methyl-pyrimidin-4-yl)-5-[2-methyl-4-[[(2R)-1-methylazetidin-2-yl]methoxy]pyrazol-3-yl]pyrazolo[1,5-a]pyridin-2-amine]"
4,25.5,"[2H]C([2H])([2H])N1CCC[C@@H]1COc1cnn(C)c1-c1ccn2nc(NC(=O)C3CC3)cc2c1 [Example 249, N-[5-[2-methyl-4-[[(2R)-1-(trideuteriomethyl)pyrrolidin-2-yl]methoxy]pyrazol-3-yl]pyrazolo[1,5-a]pyridin-2-yl]cyclopropanecarboxamide]"
5,171,"CCN1CCC[C@H]1COc1cnn(C)c1-c1ccn2nc(NC(=O)C3CC3)cc2c1 [Example 420, N-[5-[4-[[(2S)-1-ethylpyrrolidin-2-yl]methoxy]-2-methyl-pyrazol-3-yl]pyrazolo[1,5-a]pyridin-2-yl]cyclopropanecarboxamide]"
6,76.8,"CN1C[C@H]2C[C@H]2[C@@H]1COc1cnn(C)c1-c1ccn2nc(NC(=O)C3CC3)cc2c1 [Example 432, N-[5-[2-methyl-4-[[(1S,4R,5R)-3-methyl-3-azabicyclo[3.1.0]hexan-4-yl]methoxy]pyrazol-3-yl]pyrazolo[1,5-a]pyridin-2-yl]cyclopropanecarboxamide]"
7,8.5,"CN1CC(C)(C)[C@H]1COc1cnn(C)c1-c1ccn2nc(NC(=O)C3CC3)cc2c1 [Example 3, N-[5-[2-methyl-4-[[(2S)-1,3,3-trimethylazetidin-2-yl]methoxy]pyrazol-3-yl]pyrazolo[1,5-a]pyridin-2-yl]cyclopropanecarboxamide]"
8,44.3,"CCn1ncc(OC[C@@H]2CCNC2)c1-c1ccn2nc(NC(=O)C3CC3)cc2c1 [Example 312, N-[5-[2-ethyl-4-[[(3R)-pyrrolidin-3-yl]methoxy]pyrazol-3-yl]pyrazolo[1,5-a]pyridin-2-yl]cyclopropanecarboxamide]"
9,2.4,"C[C@H](O)CN1CC[C@@H]1COc1cnn(C)c1-c1ccn2nc(NC(=O)C3CC3)cc2c1 [Example 253, N-[5-[4-[[(2R)-1-[(2S)-2-hydroxypropyl]azetidin-2-yl]methoxy]-2-methyl-pyrazol-3-yl]pyrazolo[1,5-a]pyridin-2-yl]cyclopropanecarboxamide]"
10,2.2,"CCN1CC[C@@H]1COc1cnn(C)c1-c1ccn2nc(Nc3ccnc(OC)n3)cc2c1 [Example 163, 5-[4-[[(2R)-1-ethylazetidin-2-yl]methoxy]-2-methyl-pyrazol-3-yl]-N-(2-methoxypyrimidin-4-yl)pyrazolo[1,5-a]pyridin-2-amine]"
11,52.6,"CO[C@H]1CNC[C@@H]1COc1cnn(C)c1-c1ccn2nc(NC(=O)C3CC3)cc2c1 [Example 351, N-[5-[4-[[(3R,4R)-4-methoxypyrrolidin-3-yl]methoxy]-2-methyl-pyrazol-3-yl]pyrazolo[1,5-a]pyridin-2-yl]cyclopropanecarboxamide]"
